From the supplement of paper PMC6461962
Structures can show the parent of a compound that is named as a salt.

Key:
[1] = test system: Pseudomonas fluorescens FW300-N2E2
How it was run: (§1)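 Cells were washed and added to 384-well plates at a final OD600 of 0.02 in 80 µL, with serial dilutions of inorganic ion salts or equimolar nitrilotriacetic acid complexes. Aerobic plates were shaken at 700 rpm at 30 °C, while anaerobic plates were not shaken, and OD600 was read at 24 h, or at 48 h for R2A strain comparisons. Readings were scaled between water controls and growth-blocking antibiotic controls, and wells with precipitate were excluded. The IC50 was obtained by fitting curves from at least two biological replicates with the drc R package.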

[2] = test system: Rhodanobacter sp. FW104-10B01
How it was run: as §1

[3] = medium / electron acceptor: N2E2 Glucose/aerobic
[4] = medium / electron acceptor: N2E2 Glucose/aerobic 0.25xMinerals
[5] = medium / electron acceptor: N2E2 Glucose/aerobic (2)
[6] = medium / electron acceptor: N2E2 KB/aerobic
[7] = medium / electron acceptor: N2E2 LB/aerobic
[8] = medium / electron acceptor: N2E2 LB/aerobic (2)
[9] = medium / electron acceptor: N2E2 LB/nitrate
[10] = medium / electron acceptor: N2E2 Lactate/aerobic
[11] = medium / electron acceptor: N2E2 R2A/aerobic
[12] = medium / electron acceptor: 10B01 R2A/aerobic
[13] = medium / electron acceptor: 10B01 R2A/nitrate

Compound | IC50 growth inhibition [1, 3] [mM] | IC50 growth inhibition [1, 4] [mM] | IC50 growth inhibition [1, 5] [mM] | IC50 growth inhibition [1, 6] [mM] | IC50 growth inhibition [1, 7] [mM] | IC50 growth inhibition [1, 8] [mM] | IC50 growth inhibition [1, 9] [mM] | IC50 growth inhibition [1, 10] [mM] | IC50 growth inhibition [1, 11] [mM] | IC50 growth inhibition [2, 12] [mM] | IC50 growth inhibition [2, 13] [mM]
O.O.O.O.O.O.[Al+3].[Cl-].[Cl-].[Cl-] [Aluminum chloride hydrate] | > 5 | 0.409 | > 5 | > 5 | > 5 | > 5 | 4.64 | > 5 | 0.227 | 3.54 | > 5
Cl.N [Ammonium chloride] | 354 | 347 | 330 | 333 | 372 | 422 | 199 | 355 | > 500 | > 500 | > 500
O.O.[Ba+2].[Cl-].[Cl-] [Barium chloride dihydrate] | > 5 | 3.19 | 2.84 | 3.22 | > 5 | > 5 | 4.99 | > 5 | > 5 | > 5 | > 5
O.O.O.O.O.[Cd+2].[Cd+2].[Cl-].[Cl-].[Cl-].[Cl-] [Cadmium chloride hemipentahydrate] | < 0.00244 | < 0.00244 | < 0.00244 | 0.117 | 0.141 | 0.0516 | 0.111 | < 0.00244 | 0.014 | 0.11 | 0.189
[Ca+2].[Cl-].[Cl-] [Calcium chloride dihydrate] | > 500 | > 500 | > 500 | > 500 | 309 | 365 | 65.1 | 452 | 333 | 354 | 354
[Ce+3].[Cl-].[Cl-].[Cl-] [Cerium(III) chloride] | < 0.244 | < 0.244 | < 0.244 | < 0.244 | < 0.244 | < 0.244 | < 0.244 | < 0.244 | < 0.244 | < 0.244 | < 0.244
[Cl-].[Cs+] [Cesium chloride] | < 0.244 | < 0.244 | < 0.244 | 0.791 | 5.91 | 2.14 | 16.6 | < 0.244 | 1.2 | 0.452 | 3.79
O.O.O.O.O.O.[Cl][Cr]([Cl])[Cl] [Chromium(III) Chloride Hexahydrate] | < 0.00244 | < 0.00244 | < 0.00244 | > 5 | 4.91 | 4.91 | > 5 | < 0.00244 | 0.322 | 2.16 | 3.46
O.O.O.O.O.O.[Cl-].[Cl-].[Co+2] [Cobalt chloride hexahydrate] | < 0.00244 | < 0.00244 | < 0.00244 | 0.0208 | 0.175 | 0.0867 | > 5 | 0.00741 | 0.0138 | 0.592 | 0.484
O=C(O)C[C@H](NCCN[C@@H](CC(=O)O)C(=O)O)C(=O)O [Ethylenediamine-N,N'-disuccinic acid] | < 0.122 | < 0.122 | < 0.122 | < 0.122 | < 0.122 | < 0.122 | 0.488 | < 0.122 | < 0.122 | 1.76 | 2.76
[Cl][Fe]([Cl])[Cl] [Ferric chloride] | > 50 | > 50 | 39.2 | > 50 | > 50 | > 50 | > 50 | 41.7 | 0.237 | > 50 | > 50
[Cl][Ga]([Cl])[Cl] [Gallium(III)chloride] | < 0.0244 | < 0.0244 | < 0.0244 | < 0.0244 | < 0.0244 | < 0.0244 | < 0.0244 | < 0.0244 | < 0.0244 | 1 | 1.67
NO [Hydroxylamine hydrochloride] | < 0.244 | < 0.244 | < 0.244 | < 0.244 | < 0.244 | < 0.244 | 0.694 | < 0.244 | < 0.244 | 31.9 | > 500
O.[Cl-].[Li+] [Lithium chloride hydrate] | 349 | > 500 | 33.9 | 325 | 354 | 354 | 263 | 321 | 176 | 15.6 | 98.7
O.O.O.O.O.O.[Cl-].[Cl-].[Mg+2] [Magnesium chloride hexahydrate] | 276 | 431 | 366 | 354 | 354 | 360 | 321 | 354 | 268 | 218 | 141
O.O.O.O.[Cl][Mn][Cl] [Manganese (II) chloride tetrahydrate] | > 5 | > 5 | 1.57 | > 5 | 3.79 | 3.91 | > 5 | > 5 | 1.45 | > 5 | > 5
O.O.O.O.O.O.[Cl][Ni][Cl] [Nickel (II) chloride hexahydrate] | 0.0112 | 0.00556 | 0.0143 | 3.92 | 3.59 | > 5 | > 5 | 0.0276 | 0.221 | 1.03 | 1.82
O=C(O)CN(CC(=O)O)CC(=O)O [Nitrilotriacetic acid] | 0.345 | 21.4 | 6.51 | 15.3 | 54.7 | 111 | 6.75 | < 0.122 | 9.21 | > 250 | > 250
[Cl][Pd][Cl] [Palladium(II) chloride] | < 0.00244 | < 0.00244 | < 0.00244 | 3.73 | > 5 | 3.78 | > 5 | < 0.00244 | 0.249 | > 5 | > 5
[Cl-].[K+] [Potassium Chloride] | > 500 | > 500 | > 500 | > 500 | > 500 | > 500 | 458 | > 500 | > 500 | > 500 | 381
[K+].[K+].[O]=[Cr](=[O])([O-])[O-] [Potassium chromate] | < 0.244 | < 0.244 | < 0.244 | < 0.244 | < 0.244 | < 0.244 | 31 | < 0.244 | 0.0094 | 0.123 | < 0.244
O.O=[Te]([O-])[O-].[K+].[K+] [Potassium tellurite hydrate] | < 0.00244 | < 0.00244 | < 0.00244 | < 0.00244 | < 0.00244 | < 0.00244 | 0.01 | < 0.00244 | < 0.00244 | 0.01 | 0.01
